The results in this text go back to patent publication US4307072A, “N-Triiodobenzoylaminoacyl polyhydroxic amines” (Mallinckrodt, Inc., priority 1977, dated 1981).

The subject of series [1] is Swiss albino mice. Briefly: Intravenous toxicity study in mice (seven-day LD50). Type of series: in vivo. Particulars: lateral tail vein, 1 ml./min., concentration I W/V: Example 1 26.3, Example 2 11.25, Example 3 28.2, Example 5 28.0. As for the experimental part:
(§1) Intravenous, intracerebral and intracisternal acute toxicities of the compounds of Examples 1-5 were determined according to the following procedures.
Intravenous toxicity study in mice
Swiss albino mice with weights ranging from 18 to 25 grams were used for the performance of the test. Three to four groups of mice with sexes equally represented in each group received single measured doses (mg. of contrast media/kg of body weight) injected into a lateral tail vein at a rate of 1 ml./min.
Mortalities were recorded during the first four hours then daily for seven days. After seven days, surviving animals were sacrificed and necropsies performed.
Calculation of the seven-day LD50 value was carried out according to the method of Litchfield and Wilcoxon (J. Pharmacol. Exp. Ther. 96, 99-113, 1949)

In series [2] the test system is Swiss albino mice. Briefly: Intracerebral toxicity study in mice (48 hours LD50). The class given is in vivo. Particulars: 0.05 ml. (0.1 ml. maximum), concentration I W/V: Example 1 26.3, Example 2 11.25, Example 3 28.2, Example 5 28.2. As for the experimental part:
as §1
Intracerebral toxicity study in mice
Swiss albino mice of either sex, weighing 18 to 23 grams were used for this test according to the method of Haley (Brit. J. Pharmcol. 12, 12-15 1957). At each dose level, the contrast medium was injected as follows. The mouse was grasped firmly by the loose skin behind the head. After the skin was pulled taut, a 3/8 inch 27 gauge needle attached to a 0.25 ml. syringe was inserted perpendicularly through the skull into the brain at a point 2 mm. from either side of the mid line on a line drawn through the anterior base on the ears. A dose of 0.05 ml. (0.1 ml. maximum) of various concentrations of the contrast medium was injected.
Mortalities were recorded during the first four hours, then daily for two days. Surviving animals were sacrificed 48 hours after injection and the LD50 value was calculated according to the method of Litchfield and Wilcoxon (J. Pharmacol. Exp. Ther. 96, 99-113, 1949).

In the next series the test system is Sprague Dawley rats. The series is described as follows: Intracisternal toxicity study in rats (LD50). The note with it: cisterna magna, single dose, seven days, concentration I W/V: Example 1 35.0, Example 2 11.25, Example 3 14.1, Example 5 35.0. Type of series: in vivo. As for the experimental part: as §1
Intracisternal toxicity study in rats
The method of intracisternal administration of contrast media in rats was based on the procedure outlined by Melartin, et al. (Investigative Radiology, Jan. - Feb. 13, 12, 1970). Sprague Dawley rats were anesthetized with ether and positioned on a slanted stand. Following clipping of their hair on the nuchal and cervical area, a small midline incision was made in the skin in the occipital area to facilitate penetration of a 27 gauge needle into the cisterna magna. […] Single measured doses of the contrast medium were then injected.
Following injection, the animals were individually housed and observed for pharmacological and toxicological manifestations. Mortalities were recorded during the first four hours, then daily for seven days. Calculation of the LD50 value was carried out according to the method of Litchfield and Wilcoxon (J. Pharmacol. Exp. Ther. 96, 99-113, 1949)

The next series in a line: physchem. Particulars: water.

Converted amounts (≈) assume the structure as drawn.

As usually defined, the solubility is the concentration that dissolves in the medium under given conditions. Read a high solubility as much dissolved substance. As for `CC(=O)Nc1c(I)c(C(=O)NCC(=O)N[C@@H](CO)[C@@H](O)[C@H](O)[C@H](O)CO)c(I)c(N(C)C(C)=O)c1I` [Example 1, 2-(3-Acetamido-2,4,6-triiodo-5-N-methylacetamidobenzoylglycylamino)-2-deoxy-D-glucitol], the “Intravenous LD50” value with Swiss albino mice [1] was ~10,000 mg. I/kg. Further, the solubility in “Solubility in water” is 1000 mg/mL (≈ 1180 mM); in “Solubility in water” (water) it was approximately 1000 mg/mL (≈ 1180 mM). For the same molecule, in the series on Swiss albino mice [2], the “Intracerebral LD50” value is listed as approximately 1550 mg. I/kg. Further, the “Intracisternal LD50” value in the series with Sprague Dawley rats is given as approximately 525 mg. I/kg.

As to `CC(=O)Nc1c(I)c(C(=O)NCC(=O)N(C)CC(O)CO)c(I)c(C(=O)NCC(=O)N(C)CC(O)CO)c1I` (centres unmarked) [Example 3, (5-Acetamido-2,4,6-triiodoisophthaloyl)-N,N'-bis-2,3-dihydroxypropyl-N,N'-dimethyl-bis glycinamide], the “Intravenous LD50” value in the series on Swiss albino mice [1] is given as > 15,000 mg. I/kg. For the same molecule, the solubility in the series “physchem” was approximately 1000 mg/mL (≈ 1120 mM). Also, the “Intracerebral LD50” value in the series on Swiss albino mice [2] was approximately 1425 mg. I/kg. Moreover, the “Intracisternal LD50” value in the series on Sprague Dawley rats is 100 mg. I/kg.

For `CNC(=O)c1c(I)c(NC(C)=O)c(I)c(C(=O)NCC(=O)N[C@@H](CO)[C@@H](O)[C@H](O)[C@H](O)CO)c1I` [Example 2, 2-Deoxy-2-(3-Acetamido-2,4,6-triiodo-5-N-methylcarbamyl-benzoylglycylamino)-D-glucitol], the “Intravenous LD50” value in the series on Swiss albino mice [1] is listed as > 7,500 mg. I/kg. This molecule displayed a solubility in the series “Solubility in water” (water) of approximately 50 mg/mL (≈ 59.9 mM). In the series on Swiss albino mice [2], the “Intracerebral LD50” value was more than 543 mg. I/kg. Moreover, in the series with Sprague Dawley rats, the “Intracisternal LD50” value is given as less than 200 mg. I/kg.

With `CC(=O)Nc1c(I)c(C(=O)NCC(=O)N(C)C[C@H](O)[C@@H](O)[C@H](O)[C@H](O)CO)c(I)c(N(C)C(C)=O)c1I` [Example 5, N-(3-Acetamido-2,4,6-triiodo-5-N-methylacetamidobenzoylglycyl)-1-(methylamino)-1-deoxy-D-glucitol], the “Intravenous LD50” value with Swiss albino mice [1] is listed as ~8,000 mg. I/kg. In the series “Solubility in water” (water), this molecule gave a solubility of approximately 1000 mg/mL (≈ 1160 mM). In the series with Swiss albino mice [2], the “Intracerebral LD50” value is on record as approximately 1100 mg. I/kg. For the same molecule, the “Intracisternal LD50” value with Sprague Dawley rats is 400 mg. I/kg.
